The record followed here is patent US20250031744A1, “Methods and Compositions for Managing Blood Glucose Levels Using Rare Sugars” (DiaVita Therapeutics LLC, priority 2023, published 2025).

Data set [1] relates to subject with type 1 diabetes. Put plainly: Pilot open-label observational study with continuous glucose monitoring, treatment three times per day before meals (Example 1). The following applies: 7.5 g tagatose prior to meals without allulose or ginger. In kind it is in vivo, human. Here is the method: Example 1. A pilot, open-label observational study was conducted on a subject with type 1 diabetes. The subject used a Dexcom® continuous glucose monitoring system which recorded blood sugar levels every five minutes. The subject first completed an extensive control period for roughly two months to obtain background blood sugar levels.
Subsequently, the subject was administered numerous treatment protocols separated by washout periods of at least 7 days (typically two weeks). […] The subject completed treatments with the following active ingredients: (i) Experimental Treatment 1: tagatose plus allulose plus ginger, (ii) Experimental Treatment 2: tagatose plus ginger, (iii) Experimental Treatment 3: allulose plus ginger, and (iv) Experimental Treatment 4: a second treatment course comprising tagatose plus allulose plus ginger. […]
Blood sugar levels were recorded every five minutes using the continuous glucose monitoring system. Primary endpoints were (i) average blood sugar level over the course of treatment, (ii) number of five minute periods with blood sugar level over 180 mg/dL (“time with high blood sugar”) and (iii) “hyperglycemia index”, calculated as the fraction of time with blood sugar level over 250 mg/dL multiplied by the average magnitude of the these hyperglycemic periods (defined as the difference in mg/dL between the recorded blood sugar level and 250). […]

The test system of the next data set is subjects. Put plainly: Experimental treatment with tagatose alone, gastrointestinal side effects. In kind it is in vivo, human. The conditions noted are these: no co-administration of allulose or ginger; treatment stopped after a couple of days. An excerpt: Both tagatose and allulose can give rise to significant gastrointestinal side effects (e.g., bloating, flatulence, abdominal pain, diarrhea). In our personal experience and anecdotally, the GI side effects are more significant for tagatose than allulose.

Molecules are shown by their SMILES.

`O=C(CO)[C@@H](O)[C@@H](O)[C@H](O)CO` [tagatose]: the “reason treatment was not completed” value in data set [1] is recorded as “GI discomfort”. In addition, the “GI side effects of tagatose alone” value in the data set on subjects is given as “unpleasant GI side effects reported by a majority of subjects”.
